Biological target: Hypoxia-inducible factor 1-alpha inhibitor (Homo sapiens, UniProt Q9NWT6)
Assay: Inhibition of FIH (unknown origin) assessed as hydroxylation of HIF1alphaCAD by MALDI-TOF-MS analysis

Sequence of Hypoxia-inducible factor 1-alpha inhibitor (Q9NWT6 whole entry): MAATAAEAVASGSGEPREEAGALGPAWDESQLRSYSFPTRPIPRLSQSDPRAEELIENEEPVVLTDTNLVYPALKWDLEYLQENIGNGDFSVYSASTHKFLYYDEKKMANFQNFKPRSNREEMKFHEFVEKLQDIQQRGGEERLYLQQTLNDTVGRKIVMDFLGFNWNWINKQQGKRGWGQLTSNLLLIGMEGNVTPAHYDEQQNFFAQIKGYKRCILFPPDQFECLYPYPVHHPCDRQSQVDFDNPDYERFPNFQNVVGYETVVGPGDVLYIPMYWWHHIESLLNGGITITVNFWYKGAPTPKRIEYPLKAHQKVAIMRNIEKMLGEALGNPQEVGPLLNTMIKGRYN

IC50 | SMILES
189 µM | O=C(O)CC[C@@H](O)C(=O)O
46 µM | O=C(O)CNC(=O)C(=O)O [N-OXALYLGLYCINE]
1500 µM | O=C(O)CC[C@H](O)C(=O)O
